One assay deals with T1, H^+,K^+ -ATPase (Oryctolagus cuniculus, UniProt P27112).
T1 construct: Rabbit gastric glands were homogenized and microsomal fractions were prepared; from tissue; host or cells: rabbit gastric glands, light microsomal membrane fraction
Nature of the assay: Inhibitory effects on the activity of H^+,K^+ -ATPase. In kind it is biochemical. The following applies: H^+,K^+ -ATPase-containing light membrane fractions from rabbit gastric glands; read-out: 50% Enzyme inhibitory concentration (IC50). As to the method: (1) Inhibitory effects on the activity of H^+,K^+ -ATPase Rabbit gastric glands were homogenized and microsomal fractions were prepared by differential centrifugation of the resultant homogenate. The microsomal fractions were layered on 37% sucrose and centrifuged to obtain light membrane fractions containing H^+,K^+ -ATPase. Using the H^+,K^+ -ATPase-containing fractions, the effects of the compounds of this invention and omeprazole on the activity of H^+,K^+ -ATPase were examined. The inhibitory activities of the compounds of this invention on H^+,K^+ -ATPase measured by the above method are shown in Table I.

For another assay, the system named is gastric acid secretion. The assay can be described thus: Gastric acid antisecretory activity (histamine-enhanced gastric acid secretion in anesthetized rats). The class given is in vivo. Conditions: Rattus norvegicus, iv, 1.25 h; male Doryu rats, urethane anesthesia, histamine infusion 2 mg/kg/hr, test compound via jugular vein 75 min after start of infusion; read-out: Gastric acid antisecretory activity 50% Effective dose (ED50, mg/kg). As to the method: (2) Gastric acid antisecretory activity The method of preparation was based on the technique of Osumi et al. (see "Life Science" 20, 1407, 1977). Male Doryu rats weighing about 250 g were deprived of food for 24 hours but were allowed free access to water before experiments. […] The esophagus was ligated, and bilateral vagus nerves were carefully separated and cut at the cervical portion. The abdomen was opened by a midoline incinion, and a polyethylene cannula (about 3.5 cm in length and 0.4 cm in diameter) was inserted into the stomach via an incision in the duodenum. After washout of the stomach with saline, 2.0 ml of fresh saline prewarmed at 38° C. was instilled and replaced with fresh solution at 15 min intervals. Several successive collections of basal acid secretion were made to confirm the steady level of secretion. After these collections, gastric acid secretion was enhanced by infusion of histamine. Gastric acid secretion was determined as follows: the total value of gastric solution recovered from the stomach every 15 min was titrated to pH 7.0 with 0.1N NaOH, using an automatic titrator (Radiometer, Copenhage, Denmark). Acid output secreted for 15 min were calculated as microequivalents per 15 min. […] From the acid output in a control group measured at the time when the acid output secreted was lowest, the acid secretion inhibitory ratio (R) was calculated in accordance with the following equation. [formula] wherein V° is the acid output produced when the animals were not treated with the test compounds (control), and V is the acid output acid produced when the test compounds were administered to the animals. Furthermore, from correlation line between the dose and the inhibitory ratio at the dose by using the method of least squares, the 50% inhibitory dose was determined.

Assay [1] concerns gastric ulcer induced by ethanol-hydrochloric acid. The assay can be described thus: Effect of preventing gastric ulcer induced by ethanol-hydrochloric acid. The following applies: SD-strain male rats, oral, 30 min before 0.2N hydrochloric acid-50% ethanol (1 ml/rat); length of bleeding erosions; read-out: 50% Effective dose (ED50, mg/kg). In kind it is in vivo. Here is the method:
(3) Effect of preventing gastric ulcer induced by ethanol-hydrochloric acid According to the method of Robert et al. (see "Gastroenterology" 77, 433-443 (1979), SD-strain rats (male, weighing 200 to 220 g, 8 rats in each group) were deprived of food for 24 hours and of water for 19 hours. Each of the test compounds was suspended in 0.5% carboxymethyl cellulose, and orally administered to the rats. Thirty minutes after administration, 0.2N hydrochloric acid-50% ethanol (1 ml/rat) was orally administered. One hour after the administration of ethanol-hydrochloric acid, the rats were killed. The stomachs were dissected out, and the lower part of the esophagus was nipped with a clip. Aqueous 1% formalin solution (12.0 ml) was poured into the stomachs from the duodenum and then the duodenum part was nipped with a clip. The whole stomachs were immersed in aqueous 1% formalin for about 10 minutes for fixation. The stomachs were opened along the greater curvature and then rinsed with water. The gastric mucosa was examined and the lengths of bleeding erosions which occurred in the glandular stomach were measured in mm under an anatomic microscope. From the test results obtained by the above method, the ED50 (50% effective dose) of each of the test compounds was calculated.

Here are results for 30 compounds from patent publication US4839353A, “Anti-ulcer substituted pyridine derivatives” (Banyu Pharmaceutical Co., Ltd., priority 1986, dated 1989).

pIC50: −log10 of the molar value. Where a name gives a salt, the structure may show the parent alone.

T1 sequence (P27112 2-1035 limits assumed): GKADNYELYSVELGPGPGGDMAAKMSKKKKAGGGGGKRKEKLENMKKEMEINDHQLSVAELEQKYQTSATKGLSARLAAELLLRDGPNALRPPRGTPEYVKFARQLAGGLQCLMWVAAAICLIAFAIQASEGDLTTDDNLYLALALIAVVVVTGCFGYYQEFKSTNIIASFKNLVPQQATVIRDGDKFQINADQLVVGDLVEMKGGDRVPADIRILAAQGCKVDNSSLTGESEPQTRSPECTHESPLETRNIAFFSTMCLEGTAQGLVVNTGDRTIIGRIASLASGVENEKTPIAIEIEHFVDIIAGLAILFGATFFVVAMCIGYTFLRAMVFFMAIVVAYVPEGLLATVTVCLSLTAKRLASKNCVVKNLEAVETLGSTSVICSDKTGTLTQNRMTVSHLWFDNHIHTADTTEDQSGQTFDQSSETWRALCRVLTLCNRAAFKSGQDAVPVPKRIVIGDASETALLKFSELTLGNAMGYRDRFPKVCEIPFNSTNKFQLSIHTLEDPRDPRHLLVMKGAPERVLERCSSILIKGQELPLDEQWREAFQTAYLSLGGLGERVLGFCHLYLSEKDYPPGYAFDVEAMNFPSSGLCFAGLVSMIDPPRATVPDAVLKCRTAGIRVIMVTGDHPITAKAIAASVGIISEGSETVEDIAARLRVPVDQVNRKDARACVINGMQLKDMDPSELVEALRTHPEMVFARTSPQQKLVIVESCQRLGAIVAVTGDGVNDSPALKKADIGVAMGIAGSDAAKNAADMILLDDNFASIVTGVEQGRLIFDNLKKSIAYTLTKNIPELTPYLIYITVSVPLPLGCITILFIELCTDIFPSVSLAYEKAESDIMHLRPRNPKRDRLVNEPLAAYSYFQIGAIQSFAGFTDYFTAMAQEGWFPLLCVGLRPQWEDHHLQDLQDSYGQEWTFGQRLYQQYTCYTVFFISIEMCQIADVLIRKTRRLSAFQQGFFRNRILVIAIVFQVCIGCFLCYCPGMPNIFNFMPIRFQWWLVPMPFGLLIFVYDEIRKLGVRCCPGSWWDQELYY
T1 sequence (P18597 whole entry partner): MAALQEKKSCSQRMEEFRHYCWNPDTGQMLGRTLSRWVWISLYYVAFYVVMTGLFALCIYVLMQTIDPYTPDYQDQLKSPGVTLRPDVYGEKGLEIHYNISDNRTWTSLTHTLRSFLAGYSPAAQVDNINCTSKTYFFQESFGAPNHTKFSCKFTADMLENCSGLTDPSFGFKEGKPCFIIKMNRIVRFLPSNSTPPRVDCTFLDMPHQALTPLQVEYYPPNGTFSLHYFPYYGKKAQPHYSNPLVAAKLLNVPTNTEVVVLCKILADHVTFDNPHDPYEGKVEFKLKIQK

Regarding `Cc1cnc(CCc2cccc3ccccc23)cc1N1CCC(C)CC1.Cl` [Test compound 21, 5-methyl-4-(4-methylpiperidino)-2-[2-(1-naphthyl)ethyl]pyridine hydrochloride], at H^+,K^+ -ATPase, the pIC50 is 5.57. For the same compound, the ED50 with gastric acid secretion came to 0.78 mg/kg.
Consider `Cc1cnc(COc2ccc(C(C)(C)C)cc2)cc1N1CCCCC1` [compound 2], for which, on H^+,K^+ -ATPase, the pIC50 was 5.46.
With `COc1ccc2[nH]c([S+]([O-])Cc3ncc(C)c(OC)c3C)nc2c1` (stereo not drawn) [omeprazole, reference compound], the pIC50 on H^+,K^+ -ATPase was 5.21. Moreover, the ED50 in assay [1] was 34.1 mg/kg.
On to `Cc1cnc(/C=C\c2ccc(F)c3ccccc23)cc1N1CCCCC1` [compound 9], for which the pIC50 at H^+,K^+ -ATPase is 5.23.
As for `Cc1cnc(/C=C/c2ccc3ccccc3c2)cc1N1CCCCC1` [Test compound 17, (E)-5-methyl-2-[2-(2-naphthyl)vinyl]-4-piperidinopyridine hydrochloride], the pIC50 at H^+,K^+ -ATPase was 5.37.
`Cc1cnc(CCc2cccc3ccccc23)cc1N1CCCC(C)C1.Cl` (stereo not drawn) [Test compound 26, 5-methyl-4-(3-methylpiperidino)-2-[2-(1-naphthyl)ethyl]pyridine hydrochloride]: the pIC50 at H^+,K^+ -ATPase is 5.77. The ED50 in the assay on gastric acid secretion came to 0.91 mg/kg.
In the same order, the values of `Cc1cnc(CCc2cccc3cccc(C)c23)cc1N1CCCCC1.Cl` [Test compound 24, 5-methyl-2-[2-(8-methyl-1-naphthyl)-ethyl]-4-piperidinopyridine hydrochloride] are 5.22 and 2.72 mg/kg.
With `Cc1cnc(CCc2ccc3ccccc3c2)cc1N1CCCCC1.Cl` [Test compound 28, 5-methyl-2-[2-(2-naphthyl)ethyl]-4-piperidinopyridine hydrochloride], the pIC50 on H^+,K^+ -ATPase is 5.52. Moreover, in assay [1], the ED50 was 3.6 mg/kg.
As to `CCC(C)c1ccc(OCc2cc(N3CCCCC3)c(C)cn2)cc1` (stereo not drawn) [compound 3], the pIC50 at H^+,K^+ -ATPase is 5.39.
`Cc1cnc(CCc2ccc(C)c3ccccc23)cc1N1CCCCC1` [Test compound 23, 5-methyl-2-[2-(4-methyl-1-naphthyl)-ethyl]-4-piperidinopyridine hydrochloride]: the pIC50 on H^+,K^+ -ATPase is 5.34.
As to `Cc1cnc(CSc2ccc3ccccc3c2)cc1N1CCCCC1.Cl` [Test compound 6, 5-methyl-2-[(2-naphthyl)thiomethyl]-4-piperidinopyridine hydrochloride], the pIC50 on H^+,K^+ -ATPase was 5.05. The ED50 in assay [1] came to 7.3 mg/kg.
On the same counts, the results for `Cc1cnc(COc2ccccc2)cc1N1CCCCC1.Cl` [Test compound 1, 5-methyl-2-phenoxymethyl-4-piperidinopyridine hydrochloride] are 5.08 and 12.1 mg/kg.
`Cc1cnc(CCc2ccccc2)cc1N1CCCCC1.Cl` [Test compound 27, 5-methyl-2-phenethyl-4-piperidinopyridine hydrochloride]: the ED50 in assay [1] was 5.4 mg/kg.
On to `Cc1cnc(/C=C\c2cccc3cccc(C)c23)cc1N1CCCCC1` [Test compound 11, (Z)-2-[2-(8-methyl-1-naphthyl)vinyl]-5-methyl-4-piperidinopyridine], for which, at H^+,K^+ -ATPase, the pIC50 was 5.64. For the same compound, in the assay on gastric acid secretion, the ED50 was 0.92 mg/kg.
As to `Cc1cnc(/C=C\c2cccc3c(C)cccc23)cc1N1CCCCC1` [Test compound 10, (Z)-2-[2-(5-methyl-1-naphthyl)vinyl]-5-methyl-4-piperidinopyridine hydrochloride], the pIC50 on H^+,K^+ -ATPase was 5.22.
Turning to `Cc1cnc(/C=C\c2cccc3ccccc23)cc1N1CCCCC1` [compound 7], the pIC50 on H^+,K^+ -ATPase was 5.66. Further, in the assay with gastric acid secretion, the ED50 amounted to 1.16 mg/kg.
Take `Cc1cnc(/C=C\c2cccc3ccccc23)cc1N1CCCC(C)C1` (stereo not drawn) [compound 15]: the pIC50 on H^+,K^+ -ATPase was 5.77. Further, the ED50 with gastric acid secretion was determined as 0.99 mg/kg.
On to `Cc1ccc2cc(CCc3cc(N4CCCCC4)c(C)cn3)ccc2c1` [Test compound 29, 5-methyl-2-[2-(6-methyl-2-naphthyl)-ethyl]-4-piperidinopyridine hydrochloride], for which the pIC50 on H^+,K^+ -ATPase is 5.64.
Take `Cc1cnc(/C=C\c2cccc3ccccc23)cc1OC1CCCCC1` [compound 12]: on H^+,K^+ -ATPase, the pIC50 was 5.46. Moreover, the ED50 in the assay on gastric acid secretion stood at 1.35 mg/kg.
In the same order, the values of `Cc1cnc(/C=C\c2cccc3ccccc23)cc1N1CCCCCC1` [compound 13] are 6.11 and 0.9 mg/kg.
Consider `Cc1cnc(COc2ccc(C3CCCCC3)cc2)cc1N1CCCCC1` [compound 4], for which the pIC50 on H^+,K^+ -ATPase is 5.42.
With `Cc1cnc(CCc2cccc3ccccc23)cc1OC1CCCCC1.Cl` [Test compound 25, 4-cyclohexyloxy-5-methyl-2-[2-(1-naphthyl)ethyl]pyridine hydrochloride], the pIC50 on H^+,K^+ -ATPase is 5.59. For the same compound, the ED50 with gastric acid secretion was found to be 0.91 mg/kg.
As to `C(=C/c1cnccc1N1CCCCC1)/c1ccc2ccccc2c1` [Test compound 16, (Z)-3-[2-(2-naphthyl)vinyl]-4-piperidinopyridine], the pIC50 at H^+,K^+ -ATPase was 5.59.
For `Cc1cnc(/C=C\c2cccc3ccccc23)cc1N1CCC(C)CC1.Cl` [Test compound 14, (Z)-5-methyl-4-(4-methylpiperidino)-2-[2-(1-naphthyl)vinyl]pyridine hydrochloride], the pIC50 at H^+,K^+ -ATPase is 5.55. In addition, the ED50 with gastric acid secretion turned out to be 1.09 mg/kg.
In the same order, the values of `Cc1cnc(/C=C\c2ccc(Cl)c3ccccc23)cc1N1CCCCC1.Cl` [Test compound 8, (Z)-2-[2-(4-chloro-1-naphthyl)vinyl]-5-methyl-4-piperidinopyridine hydrochloride] are 5.32 and 2.78 mg/kg.
`Cc1cnc(/C=C\c2ccc3ccccc3c2)cc1N1CCCCC1` [Test compound 18, (Z)-5-methyl-2-[2-(2-naphthyl)vinyl]-4-piperidinopyridine hydrochloride]: the pIC50 at H^+,K^+ -ATPase is 5.08.
Take `Cc1cnc(CCc2cccc3ccccc23)cc1N1CCCCC1` [Test compound 22, 5-methyl-2-[2-(1-naphthyl)ethy]-4-piperidinopyridine hydrochloride]: the pIC50 at H^+,K^+ -ATPase is 5.44. Moreover, the ED50 came to 2.5 mg/kg with gastric acid secretion and 5.4 mg/kg in assay [1].
`Cc1cnc(CSc2ccccc2)cc1N1CCCCC1.Cl` [Test compound 5, 5-methyl-2-phenylthiomethyl-4-piperidinopyridine hydrochloride]: the pIC50 at H^+,K^+ -ATPase is 4.80. For the same compound, the ED50 in assay [1] worked out at 9.2 mg/kg.
As for `Cc1cnc(/C=C\c2cccc(Cl)c2Cl)cc1N1CCCCC1` [Test compound 20, (Z)-2-[2-(2,3-dichlorophenyl)vinyl]-5-methyl-4-piperidinopyridine hydrochloride], the pIC50 on H^+,K^+ -ATPase is 5.34.
For `Cc1ccc2cc(/C=C\c3cc(N4CCCCC4)c(C)cn3)ccc2c1` [Test compound 19, (Z)-5-methyl-2-[2-(6-methyl-2-naphthyl)-vinyl]-4-piperidinopyridine], the pIC50 on H^+,K^+ -ATPase was 5.11.
